This note sets out measurements from PMC12583774 (Nature Communications, 2025).

Each structure is given as a SMILES string. Where only a bound is given, the exact number is not on record here.

The test addresses SARS-CoV-2 NSP14 (Severe acute respiratory syndrome coronavirus 2, UniProt P0DTD1). In kind it is binding.

Turning to `C[S+](CC[C@H](N)C(=O)[O-])C[C@H]1O[C@@H](n2cnc3c(N)ncnc32)[C@H](O)[C@@H]1O` (stereo partly shown) [SAM, S-adenosylmethionine], the Tm changes result is reported as “negligible Tm changes”. The same measure, in the same setting: the entry for `Cn1c[n+]([C@@H]2O[C@H](COP(=O)(O)OP(=O)([O-])OP(=O)(O)OC[C@H]3O[C@@H](n4cnc5c(=O)[nH]c(N)nc54)[C@H](O)[C@@H]3O)[C@@H](O)[C@H]2O)c2nc(N)[nH]c(=O)c21` [m7GpppG] is “negligible Tm changes”. Take `Nc1nc2c(ncn2[C@@H]2O[C@H](COP(=O)(O)OP(=O)(O)OP(=O)(O)OC[C@H]3O[C@@H](n4cnc5c(=O)[nH]c(N)nc54)[C@H](O)[C@@H]3O)[C@@H](O)[C@H]2O)c(=O)[nH]1` [GpppG, G(5′)ppp(5′)G RNA Cap Structure Analog]: the Tm changes result was “negligible Tm changes”. As to `Nc1ncnc2c1ncn2[C@@H]1O[C@H](CSCC[C@H](N)C(=O)O)[C@@H](O)[C@H]1O` [SAH], the “Tm shift, maximum reached” value was no more than 10.0 °C.
